Read-outs that look alike come from different tables or passages of the source.

The conditions of series [1]: rodent models; compared with first-generation PARP inhibitors; Illuzzi et al. 2022; cited from earlier work.
In series [2] the test system is PARP1. As to conditions: Johannes et al. J. Med. Chem. 2021; cited from earlier work.
The next series deals with T1, PARP2 (Homo sapiens, UniProt Q9UGN5).
T1 construct: host or cells: HEK293
Kind of series: NanoBRET cellular target occupancy assay, PARP2. Type of series: cell-based. As to conditions: HEK293 cells transiently transfected with PARP2-NanoLuc fusion; tracer 2 nM; 2 hours at 37° C.; Kd by Cheng-Prussoff. From the text:
NanoBRET Cellular Target Occupancy Assay
On the technique in general: In BRET a luciferase serves as donor, and the signal depends on an acceptor being close.

For series [3], the target named is T2, full length N-terminally FLAG-tagged PARP1 (Homo sapiens, UniProt P09874). In words: PARP1 biochemical DELFIA assay (auto-PARylation). Details: recombinant full length human N-terminally FLAG-tagged PARP1.
T2 sequence (P09874 whole entry): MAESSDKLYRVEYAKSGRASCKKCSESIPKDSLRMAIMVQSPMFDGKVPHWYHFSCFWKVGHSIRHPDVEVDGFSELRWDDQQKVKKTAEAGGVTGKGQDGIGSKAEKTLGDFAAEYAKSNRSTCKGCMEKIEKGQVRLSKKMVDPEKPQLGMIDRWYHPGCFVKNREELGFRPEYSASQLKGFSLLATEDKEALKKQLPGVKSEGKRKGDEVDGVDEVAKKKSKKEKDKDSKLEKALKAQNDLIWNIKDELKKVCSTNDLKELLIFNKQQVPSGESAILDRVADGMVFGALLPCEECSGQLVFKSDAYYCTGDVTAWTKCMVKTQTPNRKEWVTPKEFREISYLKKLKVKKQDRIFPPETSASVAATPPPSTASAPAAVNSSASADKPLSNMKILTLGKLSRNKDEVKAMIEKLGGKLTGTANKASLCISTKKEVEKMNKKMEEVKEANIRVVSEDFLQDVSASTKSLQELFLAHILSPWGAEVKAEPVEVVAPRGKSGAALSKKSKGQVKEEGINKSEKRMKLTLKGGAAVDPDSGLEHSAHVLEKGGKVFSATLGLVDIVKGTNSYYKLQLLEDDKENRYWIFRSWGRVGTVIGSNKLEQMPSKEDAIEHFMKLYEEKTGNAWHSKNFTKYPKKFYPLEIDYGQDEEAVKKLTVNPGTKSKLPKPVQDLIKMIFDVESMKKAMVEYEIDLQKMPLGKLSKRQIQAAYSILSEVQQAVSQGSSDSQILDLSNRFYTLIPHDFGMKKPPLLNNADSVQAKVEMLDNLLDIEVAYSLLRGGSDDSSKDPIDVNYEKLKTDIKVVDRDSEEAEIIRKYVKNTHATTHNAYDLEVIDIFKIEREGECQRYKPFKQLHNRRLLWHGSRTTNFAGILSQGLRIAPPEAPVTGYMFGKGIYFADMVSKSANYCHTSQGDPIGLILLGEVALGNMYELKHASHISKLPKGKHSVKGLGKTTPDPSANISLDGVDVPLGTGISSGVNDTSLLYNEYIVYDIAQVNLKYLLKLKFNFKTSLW
Series [4] addresses T3, PARP1 (Homo sapiens, UniProt P09874).
T3 construct: host or cells: HEK293
In words: NanoBRET cellular target occupancy assay, PARP1. Particulars: for Kd: HEK293 cells transiently transfected with PARP1-NanoLuc fusion, tracer 11 nM, 2 hours at 37° C., Kd by Cheng-Prussoff; for Selectivity: NanoBRET, PARP1 over PARP2, Kd (PARP2)/Kd (PARP1). Type of series: cell-based.

The target in series [5] is T4, N-terminally FLAG-tagged PARP2 (amino acids 1-583) (Homo sapiens, UniProt Q9UGN5).
T4 construct: N-terminally FLAG-tagged PARP2 (amino acids 1-583)
T4 sequence (Q9UGN5 whole entry, the tested form may be a part): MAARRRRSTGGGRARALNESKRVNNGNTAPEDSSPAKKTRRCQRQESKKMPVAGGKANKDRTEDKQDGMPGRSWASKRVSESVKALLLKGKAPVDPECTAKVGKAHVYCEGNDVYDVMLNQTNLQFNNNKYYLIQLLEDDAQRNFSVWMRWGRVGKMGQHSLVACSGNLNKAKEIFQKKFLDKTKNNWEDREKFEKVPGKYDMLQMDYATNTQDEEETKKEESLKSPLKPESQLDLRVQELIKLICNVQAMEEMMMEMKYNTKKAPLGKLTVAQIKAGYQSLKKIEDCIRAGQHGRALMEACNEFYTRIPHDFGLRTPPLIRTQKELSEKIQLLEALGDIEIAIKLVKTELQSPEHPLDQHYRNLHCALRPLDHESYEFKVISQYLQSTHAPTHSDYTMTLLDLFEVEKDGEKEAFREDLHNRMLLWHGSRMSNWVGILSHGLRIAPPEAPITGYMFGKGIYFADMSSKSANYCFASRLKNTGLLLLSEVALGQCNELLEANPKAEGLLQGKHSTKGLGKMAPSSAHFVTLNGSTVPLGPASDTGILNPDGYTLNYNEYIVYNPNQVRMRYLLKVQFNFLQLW
Kind of series: PARP2 probe displacement HTRF assay. It counts as binding. Particulars: binned Kd. On the procedure: Data analysis was performed identical as for PARP1.
A general note: In TR-FRET formats the signal depends on donor and acceptor labels being close together.

Series [6] deals with T2, full length N-terminally FLAG-tagged PARP1. In words: PARP1 probe displacement HTRF assay. As to conditions: for Selectivity: PARP1 over PARP2, ratio Kd (PARP2)/Kd (PARP1); for Kd: binned Kd.
The mark [7] stands for this setting: binned IC50, PARP1 biochemical DELFIA assay.
[8] abbreviates: read-out: PARP1 HTRF, PARP1 probe displacement HTRF.
Where [9] appears, read: binned IC50, biochemical auto-PARylation assay.
Where [10] appears, read: read-out: PARP1 HTRF, probe displacement HTRF.

T3 sequence (P09874 whole entry): as the sequence (P09874 whole entry) above
T1 sequence (Q9UGN5 whole entry): as the sequence (Q9UGN5 whole entry, the tested form may be a part) above

As to `CCc1cc2ncc(CN3CCN(c4ccc(C(=O)NC)nc4)CC3)cc2[nH]c1=O` [AZD5305], the haematotoxicity result in series [1] is “significantly less haematotoxicity”. Moreover, the “selectivity over PARP2” value in the series with PARP1 [2] was 500 fold.
What is called IC50 is the concentration needed to halve the response being measured. `CNC(=O)c1ccc(N2CCC(N3CCC(c4nc5cccc(C(F)(F)F)c5c(=O)[nH]4)C3)CC2)cn1` (single isomer, unassigned) [Compound 86b]: the Kd is 10 to 100 nM at PARP2, less than 10 nM at PARP1 [4], less than 10 nM in series [5] (PARP2 probe displacement HTRF) and less than 10 nM in series [6] (setting [8]). Besides, the IC50 in series [3] (setting [7]) is less than 10 nM. Moreover, the Selectivity result (on PARP1 [4]; in series [6] (probe displacement HTRF)) was “+ (+ indicates a value of 10 to less than 50)” in each case.
Take `CCc1cc(Cl)c(C2CCN(C3CCN(c4ccc(C(=O)NC)nc4)CC3)C2)[nH]c1=O` (racemic) [Compound 255rac]: the Kd on PARP2 was 1000 to 10000 nM; on PARP1 [4] it was less than 10 nM; in series [5] (probe displacement HTRF), 100 to 1000 nM; in series [6] (setting [10]) it was less than 10 nM. For the same compound, the IC50 in series [3] (setting [9]) is less than 10 nM. Besides, the figures for the Selectivity entry (at PARP1 [4]; in series [6] (probe displacement HTRF)) were “+++ (+++ indicate a value of at least 100)” and “++ (++ indicates a value of 50 to less than 100)”, respectively.
With `CCc1cnc(C23CC(C2)N(C2CCN(c4ccc(C(=O)NC)nc4)CC2)C3)[nH]c1=O` [Compound 299, 5-(4-(4-(5-ethyl-6-oxo-1,6-dihydropyrimidin-2-yl)-2-azabicyclo[2.1.1]hexan-2-yl)piperidin-1-yl)-N-methylpicolinamide], the Kd on PARP2 was more than 10000 nM; on PARP1 [4], 10 to 100 nM; in series [5] (probe displacement HTRF) it was more than 10000 nM; in series [6] (PARP1 HTRF, probe displacement HTRF), less than 10 nM. Further, the IC50 in series [3] (setting [9]) is less than 10 nM. The Selectivity result (at PARP1 [4]; in series [6] (probe displacement HTRF)) was “+++ (+++ indicate a value of at least 100)” each time.
On to `CCc1ccc(C2CCN(C3CCN(c4ccc(C(=O)NCC(F)F)nc4)CC3)C2)[nH]c1=O` (single isomer, unassigned) [Compound 354b], for which the Kd at PARP2 is 100 to 1000 nM; on PARP1 [4], less than 10 nM; in series [5] (probe displacement HTRF), 100 to 1000 nM; in series [6] (setting [10]), less than 10 nM. Besides, in series [3] (setting [9]), the IC50 is less than 10 nM. Further, the Selectivity entry (at PARP1 [4]; in series [6] (probe displacement HTRF)) was “+++ (+++ indicate a value of at least 100)” in each case.
On to `CCc1ccc(C2CCN(C3CCN(c4ccc(C(=O)NC)nc4F)CC3)C2)[nH]c1=O` (single isomer, unassigned) [Compound 151a, 5-(4-(3-(5-ethyl-6-oxo-1,6-dihydropyridin-2-yl)pyrrolidin-1-yl)piperidin-1-yl)-6-fluoro-N-methylpicolinamide], for which the Kd on PARP2 was more than 10000 nM; on PARP1 [4], less than 10 nM; in series [5] (PARP2 probe displacement HTRF), 100 to 1000 nM; in series [6] (PARP1 HTRF, PARP1 probe displacement HTRF), less than 10 nM. In addition, the IC50 in series [3] (setting [7]) is less than 10 nM. Moreover, the Selectivity entry (on PARP1 [4]; in series [6] (probe displacement HTRF)) was “+++ (+++ indicate a value of at least 100)” in each case.
Consider `CNC(=O)c1ccc(N2CCC(N3CCC(c4cc5cccc(F)c5c(=O)[nH]4)C3)CC2)c(F)n1` (single isomer, unassigned) [Compound 184b, 6-fluoro-5-[4-[3-(8-fluoro-1-oxo-2H-isoquinolin-3-yl)pyrrolidin-1-yl]piperidin-1-yl]-N-methylpyridine-2-carboxamide], for which the Kd was 100 to 1000 nM at PARP2, less than 10 nM on PARP1 [4], 100 to 1000 nM in series [5] (PARP2 probe displacement HTRF) and less than 10 nM in series [6] (setting [8]). Further, the IC50 in series [3] (setting [7]) was less than 10 nM. Moreover, the Selectivity entry (at PARP1 [4]; in series [6] (probe displacement HTRF)) was “+++ (+++ indicate a value of at least 100)” in each case.
On to `CNC(=O)c1ccc(N2CCC(N3CCC(c4cc5c(Cl)cccc5c(=O)[nH]4)C3)CC2)cn1` (single isomer, unassigned) [Compound 137b], for which the Kd on PARP2 was 100 to 1000 nM; on PARP1 [4], less than 10 nM; in series [5] (PARP2 probe displacement HTRF), 10 to 100 nM; in series [6] (setting [8]), less than 10 nM. Also, the IC50 in series [3] (setting [7]) is less than 10 nM. The Selectivity entry at PARP1 [4] is given as “+++ (+++ indicate a value of at least 100)”; in series [6] (probe displacement HTRF), “+ (+ indicates a value of 10 to less than 50)”.
For `CNC(=O)c1ccc(N2CCC(N3CCC(c4cc5ncc(F)cc5c(=O)[nH]4)C3)CC2)cn1` (racemic) [Compound 315rac], the Kd at PARP2 was 100 to 1000 nM; at PARP1 [4], less than 10 nM; in series [5] (probe displacement HTRF), 100 to 1000 nM; in series [6] (setting [10]), less than 10 nM. In series [3] (setting [9]), the IC50 is less than 10 nM. Further, the Selectivity entry (at PARP1 [4]; in series [6] (probe displacement HTRF)) was “+++ (+++ indicate a value of at least 100)” each time.

The record behind these values is patent US20250152585A1, “PHARMACEUTICAL COMPOUND” (Duke Street Bio Limited, priority 2022, published 2025).
